Patent publication US6355799B1, “Substituted benzene compounds, process for their preparation, and herbicidal and defoliant compositions containing them” (ISK Americas Incorporated, priority 1997, dated 2002)

How the values were obtained:
Type in all cases: in vivo
[1] = tested on: large crabgrass (Digitaria sanguinalis, DIGSA); assay: Pre-emerge test, greenhouse herbicide activity screening; conditions: pre-emerge, 14 days after application, scale 0-100
Excerpt: (§1) A standard greenhouse herbicide activity screening system was used to evaluate the herbicidal efficacy and crop safety of these test compounds. Seven broadleaf weed species including redroot pigweed (Amaranthus retroflexus, AMARE, velvetleaf (Abutilon theophrasti, ABUTH), sicklepod (Cassia obtusifolia, CASOB), ivyleaf morningglory (Ipomoea hederacea, IPOHE), lambsquarters (Chenopodium album, CHEAL), common ragweed (Ambrosia artemisizfolia L., AMBEL), and cocklebur (Xanthium strumarium, XANST) were used as test species. Four grass weed species including green foxtail (Setaria viridis, SETVI), barnyardgrass (Echinochloa crus-galli, ECHCG), johnsongrass (Sorghum halepense, SORHA), and large crabgrass (Digitaria sanguinalis, DIGSA) were also used. In addition, three crop species, field corn (Zea mays L., var. Dekalb 535, CORN), soybean (Glycine max L., var. Pella 86, SOY), and is upland rice (Oryza sp., var. Tebonnet, RICE) were included.
(§2) All plants were grown in 10 cm square plastic pots which were filled with a sandy loam soil mix. For pre-emerge tests, seeds were planted one day prior to application of the test compounds. For post-emerge tests, seeds were planted 8-21 days prior to the test to allow emergence and good foliage development prior to application of the test substances. At the time of the post-emerge application, plants of all species were usually at the 2-3 leaf stage of development.
(§3) All test compounds Were dissolved in acetone and applied to the test units in a volume of 187 l /ha. Test materials were applied at rates ranging from 15 g ai/ha to 1000 g ai/ha using a track sprayer equipped with a TJ8001E even flow flat fan spray nozzle. Plants were arranged on a shelf so that the top of the canopy (post-emerge) or top of the soil surface (pre-emerge) was 40-45 cm below the nozzle. Pressurized air was used to force the test solution through the nozzle as it was mechanically advanced (via electrically driven chain drive) over the top of all test plants/pots. This application simulates a typical commercial field herbicide application.
(§4) In the post-emerge test, a commercial non-ionic surfactant was also included (0.25% v/v) to enhance wetting of the leaf surfaces of target plants. Immediately after application, test units of the pre-emerge applications were watered at the soil surface to incorporate the test materials. Subsequently, these test units were bottom-watered. Post-emerge test units were always bottom-watered.
(§5) At 14 days after application of the test materials, phytotoxicity ratings were recorded. A rating scale of 0-100 was used as previously described in Research Methods in Weed Science, 2nd edition, B. Truelove, Ed., Southern Weed Science Society, Auburn University, Auburn, Ala. 1977. Briefly, “0” corresponds to no damage and “100” corresponds to complete death of all plants in the test unit. This scale was used both to determine efficacy against weed species and damage to crop species. Herbicide activity data for various compounds of this invention, which are shown by compound No. in Tables 1-8, are shown in Tables 11 and 12.

[2] = tested on: barnyardgrass (Echinochloa crus-galli, ECHCG); assay: as above; conditions: pre-emerge, 14 days after application, scale 0-100
Excerpt: as §1, §2, §3, §4, §5

[3] = tested on: velvetleaf (Abutilon theophrasti, ABUTH); assay: as above; conditions: pre-emerge, 14 days after application, scale 0-100
Excerpt: as §1, §2, §3, §4, §5

[4] = tested on: sicklepod (Cassia obtusifolia, CASOB); assay: as above; conditions: pre-emerge, 14 days after application, scale 0-100
Excerpt: as §1, §2, §3, §4, §5

[5] = tested on: green foxtail (Setaria viridis, SETVI); assay: as above; conditions: pre-emerge, 14 days after application, scale 0-100
Excerpt: as §1, §2, §3, §4, §5

[6] = tested on: lambsquarters (Chenopodium album, CHEAL); assay: as above; conditions: pre-emerge, 14 days after application, scale 0-100
Excerpt: as §1, §2, §3, §4, §5

[7] = tested on: ivyleaf morningglory (Ipomoea hederacea, IPOHE); assay: as above; conditions: pre-emerge, 14 days after application, scale 0-100
Excerpt: as §1, §2, §3, §4, §5

[8] = tested on: large crabgrass (Digitaria sanguinalis, DIGSA); assay: Post-emerge test, greenhouse herbicide activity screening; conditions: post-emerge, 14 days after application, rating scale 0-100
Excerpt: as §1, §2, §3, §4, §5

[9] = tested on: barnyardgrass (Echinochloa crus-galli, ECHCG); assay: as above; conditions: post-emerge, 14 days after application, rating scale 0-100
Excerpt: as §1, §2, §3, §4, §5

[10] = tested on: velvetleaf (Abutilon theophrasti, ABUTH); assay: as above; conditions: post-emerge, 14 days after application, rating scale 0-100
Excerpt: as §1, §2, §3, §4, §5

[11] = tested on: sicklepod (Cassia obtusifolia, CASOB); assay: as above; conditions: post-emerge, 14 days after application, rating scale 0-100
Excerpt: as §1, §2, §3, §4, §5

[12] = tested on: green foxtail (Setaria viridis, SETVI); assay: as above; conditions: post-emerge, 14 days after application, rating scale 0-100
Excerpt: as §1, §2, §3, §4, §5

[13] = tested on: lambsquarters (Chenopodium album, CHEAL); assay: as above; conditions: post-emerge, 14 days after application, rating scale 0-100
Excerpt: as §1, §2, §3, §4, §5

[14] = tested on: ivyleaf morningglory (Ipomoea hederacea, IPOHE); assay: as above; conditions: post-emerge, 14 days after application, rating scale 0-100
Excerpt: as §1, §2, §3, §4, §5

[15] = tested on: redroot pigweed (Amaranthus retroflexus, AMARE); assay: as above; conditions: post-emerge, 14 days after application, rating scale 0-100
Excerpt: as §1, §2, §3, §4, §5

[16] = tested on: field corn (Zea mays L., var. Dekalb 535, CORN); assay: Post-emerge test, crop safety; conditions: post-emerge, 14 days after application, rating scale 0-100
Method in brief: (§6)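 Sandy loam pots; pre-emerge: sown 1 d pre-spray, surface-watered after, then bottom-watered. Post-emerge: sown 8–21 d before, 2–3 leaf stage, + 0.25% v/v NIS, bottom-watered. Acetone, 187 l/ha track spray, 15–1000 g ai/ha. 0–100 injury score, day 14.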

[17] = tested on: upland rice (Oryza sp., var. Tebonnet, RICE); assay: Post-emerge test, crop safety; conditions: post-emerge, 14 days after application, rating scale 0-100
Method in brief: as §6

[18] = tested on: redroot pigweed (Amaranthus retroflexus, AMARE); assay: Pre-emerge test, greenhouse herbicide activity screening; conditions: pre-emerge, 14 days after application, scale 0-100
Method in brief: as §6

[19] = tested on: field corn (Zea mays L., var. Dekalb 535, CORN); assay: Pre-emerge test, crop safety; conditions: pre-emerge, 14 days after application, scale 0-100
Method in brief: as §6

[20] = tested on: upland rice (Oryza sp., var. Tebonnet, RICE); assay: Pre-emerge test, crop safety; conditions: pre-emerge, 14 days after application, scale 0-100
Method in brief: as §6

COc1c(Cl)cc(F)c(-n2c(=O)cc(C(F)(F)F)n(C)c2=O)c1NC(=O)CCc1cc(C)ccc1C [2-130]
phytotoxicity rating DIGSA ([1]; 63 g ai/ha): 20
phytotoxicity rating DIGSA ([1]; 250 g ai/ha): 90
phytotoxicity rating ECHCG ([2]; 63 g ai/ha): 0
phytotoxicity rating ECHCG ([2]; 250 g ai/ha): 30
phytotoxicity rating ABUTH ([3]; 63 g ai/ha): 100
phytotoxicity rating ABUTH ([3]; 250 g ai/ha): 100
phytotoxicity rating CASOB ([4]; 63 g ai/ha): 0
phytotoxicity rating CASOB ([4]; 250 g ai/ha): 40
phytotoxicity rating SETVI ([5]; 63 g ai/ha): 50
phytotoxicity rating SETVI ([5]; 250 g ai/ha): 100
phytotoxicity rating CHEAL ([6]; 63 g ai/ha): 60
phytotoxicity rating CHEAL ([6]; 250 g ai/ha): 100
phytotoxicity rating IPOHE ([7]; 63 g ai/ha): 0
phytotoxicity rating IPOHE ([7]; 250 g ai/ha): 30
DIGSA phytotoxicity rating ([8]; 63 g ai/ha): 30
DIGSA phytotoxicity rating ([8]; 250 g ai/ha): 50
ECHCG phytotoxicity rating ([9]; 63 g ai/ha): 50
ECHCG phytotoxicity rating ([9]; 250 g ai/ha): 60
ABUTH phytotoxicity rating ([10]; 63 g ai/ha): 100
ABUTH phytotoxicity rating ([10]; 250 g ai/ha): 100
CASOB phytotoxicity rating ([11]; 63 g ai/ha): 80
CASOB phytotoxicity rating ([11]; 250 g ai/ha): 70
SETVI phytotoxicity rating ([12]; 63 g ai/ha): 60
SETVI phytotoxicity rating ([12]; 250 g ai/ha): 70
CHEAL phytotoxicity rating ([13]; 63 g ai/ha): 100
CHEAL phytotoxicity rating ([13]; 250 g ai/ha): 100
IPOHE phytotoxicity rating ([14]; 63 g ai/ha): 100
IPOHE phytotoxicity rating ([14]; 250 g ai/ha): 100
AMARE phytotoxicity rating ([15]; 63 g ai/ha): 100
AMARE phytotoxicity rating ([15]; 250 g ai/ha): 100
CORN phytotoxicity rating (crop damage) ([16]; 63 g ai/ha): 10
CORN phytotoxicity rating (crop damage) ([16]; 250 g ai/ha): 30
RICE phytotoxicity rating (crop damage) ([17]; 63 g ai/ha): 20
RICE phytotoxicity rating (crop damage) ([17]; 250 g ai/ha): 25
phytotoxicity rating AMARE ([18]; 63 g ai/ha): 40
phytotoxicity rating AMARE ([18]; 250 g ai/ha): 100
phytotoxicity rating CORN (crop damage) ([19]; 63 g ai/ha): 0
phytotoxicity rating CORN (crop damage) ([19]; 250 g ai/ha): 5
phytotoxicity rating RICE (crop damage) ([20]; 63 g ai/ha): 0
phytotoxicity rating RICE (crop damage) ([20]; 250 g ai/ha): 15
